Where two headings read alike, the source gives them in different places. Positions of bridges follow the written chain, without caps; N, C: chain ends. Non-standard residues stand in square brackets, D forms with d. Residues, ends and D or L forms follow the SMILES beside them. N(3-phenylpropyl)Gly = O=C(O)CNCCCc1ccccc1; Cit = NC(=O)NCCC[C@H](N)C(=O)O; Ahp(2) = CCCCC[C@H](N)C(=O)O; NMeNle = CCCC[C@H](NC)C(=O)O; Tle = CC(C)(C)[C@H](N)C(=O)O; NHexGly = CCCCCCNCC(=O)O; Nle = CCCC[C@H](N)C(=O)O; Orn = NCCC[C@H](N)C(=O)O
Biological target: T1, mouse VISTA (mVISTA) (Mus musculus, UniProt Q9D659)
T1 construct: expressed in transfected cells; host or cells: Human embryonic kidney 293T cells
T1 sequence (Q9D659 33-308): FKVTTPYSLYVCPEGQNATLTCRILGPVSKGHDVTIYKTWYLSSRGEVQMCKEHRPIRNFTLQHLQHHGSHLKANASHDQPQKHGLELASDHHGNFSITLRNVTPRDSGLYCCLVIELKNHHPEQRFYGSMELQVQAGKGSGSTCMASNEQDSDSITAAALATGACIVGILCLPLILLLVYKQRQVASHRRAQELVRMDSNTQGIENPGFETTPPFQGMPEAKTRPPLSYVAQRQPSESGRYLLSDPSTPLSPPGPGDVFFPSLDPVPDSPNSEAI
Assay: Cell-Based Binding High-Content Assay For mVISTA (HC CBA mVISTA)
Conditions: 293T cells expressing mouse VISTA, competition with biotinylated peptide (2 nM)
Procedure, shortened: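 Competition of compound with a biotinylated peptide (final 2 nM, 30 min at RT) for binding to mVISTA on 293T cells, run under no-wash or wash (1 h compound preincubation then removal) formats. Readout by Alexa 647–streptavidin imaging on a high-content platform; four-parameter logistic fit gave IC50.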

Row | IC50 (read-out: CBA mVISTA IC50) [nM] | IC50 (read-out: HC CBA mVISTA IC50) [nM] | SMILES
1 | 4.6 | – | CCCCCCN1CC(=O)N[C@@H](Cc2ccc(O)cc2)C(=O)N[C@@H](CC(C)C)C(=O)NCC(=O)N[C@@H](CCCNC(=N)N)C(=O)N(C)[C@@H](CCCC)C(=O)N[C@@H](CCCCC)C(=O)N2CCC[C@H]2C(=O)N[C@@H](C(C)C)C(=O)N[C@@H](CO)C(=O)N[C@H](C(=O)NCC(N)=O)CSCC(=O)N[C@@H](Cc2ccccc2)C(=O)N[C@@H](Cc2ccc(O)cc2)C(=O)N[C@@H](CC(=O)O)C1=O [Example 1081] ({CH2CO}-FYD[NHexGly]YLGR[NMeNle][Ahp(2)]PVSCG-NH2; thioether N-14)
2 | 8.1 | – | CCCCCCN1CC(=O)N[C@@H](Cc2ccc(O)cc2)C(=O)N[C@@H](CCCC)C(=O)N[C@@H](CC(N)=O)C(=O)N[C@@H](CCCNC(N)=O)C(=O)N(C)[C@@H](CCCC)C(=O)N[C@@H](CCCCC)C(=O)N2CCC[C@H]2C(=O)N[C@@H](C(C)C)C(=O)N[C@@H](CC(=O)O)C(=O)N[C@H](C(=O)NCC(=O)O)CSCC(=O)N[C@@H](Cc2ccccc2)C(=O)N[C@@H](Cc2ccc(O)cc2)C(=O)N[C@@H](CC(=O)O)C1=O [Example 1082] ({CH2CO}-FYD[NHexGly]Y[Nle]N[Cit][NMeNle][Ahp(2)]PVDCG-OH; thioether N-14)
3 | 39.1 | – | CCCCCCN1CC(=O)N[C@@H](Cc2ccc(O)cc2)C(=O)N[C@@H](CCCC)C(=O)N[C@@H](CC(N)=O)C(=O)N[C@@H](CCCNC(=N)N)C(=O)N(C)[C@@H](CCCC)C(=O)N[C@@H](CCCCC)C(=O)N2CCC[C@H]2C(=O)N[C@@H](C(C)C)C(=O)N[C@@H](CC(=O)O)C(=O)N[C@H](C(=O)NCC(=O)O)CSCC(=O)N[C@@H](Cc2ccccc2)C(=O)N[C@@H](Cc2ccc(O)cc2)C(=O)N[C@@H](CC(=O)O)C1=O [Example 1083] ({CH2CO}-FYD[NHexGly]Y[Nle]NR[NMeNle][Ahp(2)]PVDCG-OH; thioether N-14)
4 | – | 37.8 | CCCCC[C@@H]1NC(=O)[C@H](CCCC)N(C)C(=O)[C@H](CCCN)NC(=O)[C@H](CC(N)=O)NC(=O)[C@H](CC(C)C)NC(=O)[C@H](Cc2ccc(O)cc2)NC(=O)CN(CCCc2ccccc2)C(=O)[C@H](CC(=O)O)NC(=O)[C@H](Cc2ccc(O)cc2)NC(=O)[C@H](Cc2ccccc2)NC(=O)CSC[C@@H](C(=O)NCC(N)=O)NC(=O)[C@H](CO)NC(=O)[C@H](C(C)(C)C)NC(=O)[C@@H]2CCCN2C1=O [Example 1084] ({CH2CO}-FYD[N(3-phenylpropyl)Gly]YLN[Orn][NMeNle][Ahp(2)]P[Tle]SCG-NH2; thioether N-14)
5 | – | 31.8 | CCCCC[C@@H]1NC(=O)[C@H](CCCC)N(C)C(=O)[C@H](CCCN)NC(=O)[C@H](CC(N)=O)NC(=O)[C@H](CC(C)C)NC(=O)[C@H](Cc2ccc(O)cc2)NC(=O)CN(CCCc2ccccc2)C(=O)[C@H](CC(=O)O)NC(=O)[C@H](Cc2ccc(O)cc2)NC(=O)[C@H](Cc2ccccc2)NC(=O)CSC[C@@H](C(=O)NCC(N)=O)NC(=O)[C@H](CO)NC(=O)[C@H](C(C)C)NC(=O)[C@@H]2CCCN2C1=O [Example 1085] ({CH2CO}-FYD[N(3-phenylpropyl)Gly]YLN[Orn][NMeNle][Ahp(2)]PVSCG-NH2; thioether N-14)
6 | – | 40.7 | CCCCC[C@@H]1NC(=O)[C@H](CCCC)N(C)C(=O)[C@H](CCCNC(=N)N)NC(=O)[C@H](CC(N)=O)NC(=O)[C@H](CC(C)C)NC(=O)[C@H](Cc2ccc(O)cc2)NC(=O)CN(CCCc2ccccc2)C(=O)[C@H](CC(=O)O)NC(=O)[C@H](Cc2ccc(O)cc2)NC(=O)[C@H](Cc2ccccc2)NC(=O)CSC[C@@H](C(=O)NCC(N)=O)NC(=O)[C@H](CO)NC(=O)[C@H](C(C)C)NC(=O)[C@@H]2CCCN2C1=O [Example 1086] ({CH2CO}-FYD[N(3-phenylpropyl)Gly]YLNR[NMeNle][Ahp(2)]PVSCG-NH2; thioether N-14)
7 | – | 34.7 | CCCCC[C@@H]1NC(=O)[C@H](CCCC)N(C)C(=O)[C@H](CCCNC(=N)N)NC(=O)[C@H](CC(N)=O)NC(=O)[C@H](CC(C)C)NC(=O)[C@H](Cc2ccc(O)cc2)NC(=O)CN(CCCc2ccccc2)C(=O)[C@H](CC(=O)O)NC(=O)[C@H](Cc2ccc(O)cc2)NC(=O)[C@H](Cc2ccccc2)NC(=O)CSC[C@@H](C(=O)NCC(N)=O)NC(=O)[C@H](CO)NC(=O)[C@H](C(C)(C)C)NC(=O)[C@@H]2CCCN2C1=O [Example 1087] ({CH2CO}-FYD[N(3-phenylpropyl)Gly]YLNR[NMeNle][Ahp(2)]P[Tle]SCG-NH2; thioether N-14)

Second part, the compound before the results:

Row | SMILES | IC50 (read-out: CBA mVISTA IC50) [nM] | IC50 (read-out: HC CBA mVISTA IC50) [nM]
8 | CCCCCCN1CC(=O)N[C@@H](Cc2ccc(O)cc2)C(=O)N[C@@H](CCCCC)C(=O)N[C@@H](CC(=O)O)C(=O)N[C@@H](CCCNC(=N)N)C(=O)N(C)[C@@H](CCCC)C(=O)N[C@@H](CCCCC)C(=O)N2CCC[C@H]2C(=O)N[C@@H](C(C)C)C(=O)N[C@@H](CC(=O)O)C(=O)N[C@H](C(=O)N[C@@H](CC(=O)O)C(N)=O)CSCC(=O)N[C@@H](Cc2ccccc2)C(=O)N[C@@H](Cc2ccc(O)cc2)C(=O)N[C@@H](CC(=O)O)C1=O [Example 1074] ({CH2CO}-FYD[NHexGly]Y[Ahp(2)]DR[NMeNle][Ahp(2)]PVDCD-NH2; thioether N-14) | 9.7 | –
9 | CCCCCCN1CC(=O)N[C@@H](Cc2ccc(O)cc2)C(=O)N[C@@H](CCCC)C(=O)N[C@@H](CC(=O)O)C(=O)N[C@@H](CCCNC(=N)N)C(=O)N(C)[C@@H](CCCC)C(=O)N[C@@H](CCCCC)C(=O)N2CCC[C@H]2C(=O)N[C@@H](C(C)C)C(=O)N[C@@H](CC(=O)O)C(=O)N[C@H](C(=O)N[C@H](CC(=O)O)C(N)=O)CSCC(=O)N[C@@H](Cc2ccccc2)C(=O)N[C@@H](Cc2ccc(O)cc2)C(=O)N[C@@H](CC(=O)O)C1=O [Example 1075] ({CH2CO}-FYD[NHexGly]Y[Nle]DR[NMeNle][Ahp(2)]PVDC[dD]-NH2; thioether N-14) | 19.1 | –
10 | CCCCCCN1CC(=O)N[C@@H](Cc2ccc(O)cc2)C(=O)N[C@@H](CCCCC)C(=O)N[C@@H](CC(=O)O)C(=O)N[C@@H](CCCNC(=N)N)C(=O)N(C)[C@@H](CCCC)C(=O)N[C@@H](CCCCC)C(=O)N2CCC[C@H]2C(=O)N[C@@H](C(C)C)C(=O)N[C@@H](CC(=O)O)C(=O)N[C@H](C(=O)N[C@H](CC(=O)O)C(N)=O)CSCC(=O)N[C@@H](Cc2ccccc2)C(=O)N[C@@H](Cc2ccc(O)cc2)C(=O)N[C@@H](CC(=O)O)C1=O [Example 1076] ({CH2CO}-FYD[NHexGly]Y[Ahp(2)]DR[NMeNle][Ahp(2)]PVDC[dD]-NH2; thioether N-14) | 21.5 | –
11 | CCCCCCN1CC(=O)N[C@@H](Cc2ccc(O)cc2)C(=O)N[C@@H](CCCCC)C(=O)N[C@@H](CC(=O)O)C(=O)N[C@@H](CCCNC(=N)N)C(=O)N(C)[C@@H](CCCC)C(=O)N[C@@H](CCCCC)C(=O)N2CCC[C@H]2C(=O)N[C@@H](C(C)C)C(=O)N[C@@H](CC(=O)O)C(=O)N[C@H](C(=O)N[C@@H](CCC(=O)O)C(N)=O)CSCC(=O)N[C@@H](Cc2ccccc2)C(=O)N[C@@H](Cc2ccc(O)cc2)C(=O)N[C@@H](CC(=O)O)C1=O [Example 1077] ({CH2CO}-FYD[NHexGly]Y[Ahp(2)]DR[NMeNle][Ahp(2)]PVDCE-NH2; thioether N-14) | 14.7 | –
12 | CCCCCCN1CC(=O)N[C@@H](Cc2ccc(O)cc2)C(=O)N[C@@H](CCCC)C(=O)N[C@@H](CC(=O)O)C(=O)N[C@@H](CCCNC(=N)N)C(=O)N(C)[C@@H](CCCC)C(=O)N[C@@H](CCCCC)C(=O)N2CCC[C@H]2C(=O)N[C@@H](C(C)C)C(=O)N[C@@H](CC(=O)O)C(=O)N[C@H](C(=O)N[C@@H](CCC(=O)O)C(N)=O)CSCC(=O)N[C@@H](Cc2ccccc2)C(=O)N[C@@H](Cc2ccc(O)cc2)C(=O)N[C@@H](CC(=O)O)C1=O [Example 1078] ({CH2CO}-FYD[NHexGly]Y[Nle]DR[NMeNle][Ahp(2)]PVDCE-NH2; thioether N-14) | 17.7 | –
13 | CCCCCCN1CC(=O)N[C@@H](Cc2ccc(O)cc2)C(=O)N[C@@H](CCCCC)C(=O)NCC(=O)N[C@@H](CCCNC(=N)N)C(=O)N(C)[C@@H](CCCC)C(=O)N[C@@H](CCCCC)C(=O)N2CCC[C@H]2C(=O)N[C@@H](C(C)C)C(=O)N[C@@H](CO)C(=O)N[C@H](C(=O)NCC(N)=O)CSCC(=O)N[C@@H](Cc2ccccc2)C(=O)N[C@@H](Cc2ccc(O)cc2)C(=O)N[C@@H](CC(=O)O)C1=O [Example 1079] ({CH2CO}-FYD[NHexGly]Y[Ahp(2)]GR[NMeNle][Ahp(2)]PVSCG-NH2; thioether N-14) | 24.6 | –
14 | CCCCCCN1CC(=O)N[C@@H](Cc2ccc(O)cc2)C(=O)N[C@@H](CC(C)C)C(=O)NCC(=O)N[C@@H](CCCNC(=N)N)C(=O)N(C)[C@@H](CCCC)C(=O)N[C@@H](CCCCC)C(=O)N2CCC[C@H]2C(=O)N[C@@H](C(C)C)C(=O)N[C@@H](CO)C(=O)N[C@H](C(=O)NCC(=O)O)CSCC(=O)N[C@@H](Cc2ccccc2)C(=O)N[C@@H](Cc2ccc(O)cc2)C(=O)N[C@@H](CC(=O)O)C1=O [Example 1080] ({CH2CO}-FYD[NHexGly]YLGR[NMeNle][Ahp(2)]PVSCG-OH; thioether N-14) | 18.6 | –
15 | CCCCCCN1CC(=O)N[C@@H](Cc2ccc(O)cc2)C(=O)N[C@@H](CCCCC)C(=O)N[C@@H](CC(N)=O)C(=O)N[C@@H](CCCNC(=N)N)C(=O)N[C@@H](C)C(=O)N[C@@H](CCCCC)C(=O)N2CCC[C@H]2C(=O)N[C@@H](C(C)C)C(=O)N[C@@H](CO)C(=O)N[C@H](C(=O)NCC(N)=O)CSCC(=O)N[C@@H](Cc2ccccc2)C(=O)N[C@@H](Cc2ccc(O)cc2)C(=O)N[C@@H](CC(=O)O)C1=O [Example 1089] ({CH2CO}-FYD[NHexGly]Y[Ahp(2)]NRA[Ahp(2)]PVSCG-NH2; thioether N-14) | – | 37.9

Source: patent publication US20240218022A1, “ANTI-VISTA MACROCYCLIC PEPTIDES AND COMPOSITIONS” (BRISTOL-MYERS SQUIBB COMPANY, priority 2022, published 2024)
